Results taken from paper PMC3364214, “Role of Operon aaoSo-mutT in Antioxidant Defense in Streptococcus oligofermentans” (PLoS ONE, 2012).

Target: T1, MutT (Streptococcus cristatus, UniProt A0ABN4B3E2)
T1 construct: gene I872_01330; mutT (453 bp fragment) in NcoI-XhoI of pET-28a, His6-tag fusion (C-terminal by the primers), E. coli BL21(DE3) pLysS, Histrap purified; tag removal not mentioned
T1 sequence (A0ABN4B3E2 1-151): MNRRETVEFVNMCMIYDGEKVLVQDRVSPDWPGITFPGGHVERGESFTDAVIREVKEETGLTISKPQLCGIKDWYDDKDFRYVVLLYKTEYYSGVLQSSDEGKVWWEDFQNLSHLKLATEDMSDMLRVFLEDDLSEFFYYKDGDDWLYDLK
Experiment: HPLC of 8-oxo-dGTP degradation (UV […] nm)
Type: biochemical
Conditions: 100 uM substrate, 100 nM MutT, 5 mM MgCl2, 100 mM Tris-HCl pH 9.0, 5% glycerol, 37 C, 20 min

Nc1nc2c([nH]c(=O)n2[C@H]2C[C@H](O)[C@@H](COP(=O)(O)OP(=O)(O)OP(=O)(O)O)O2)c(=O)[nH]1 [8-oxo-dGTP]
HPLC of 8-oxo-dGTP degradation (UV 293 nm): reduction of 8-oxo-dGTP levels was detected in the reaction mixture by HPLC
